Assay results as given in ChEMBL document CHEMBL5390204, “Persephacin Is a Broad-Spectrum Antifungal Aureobasidin Metabolite That Overcomes Intrinsic Resistance in Aspergillus fumigatus” (J Nat Prod, 2023).
Converted amounts (≈) assume the structure as drawn.

Legend:
[1] = tested on: Candida parapsilosis; assay: Antifungal activity against Candida parapsilosis ATCC 22019 (Y-12969) assessed as reduction in fungal growth incubated for 48 hrs by microplate reader analysis; assay type: functional; conditions: Lodderomyces parapsilosis
[2] = tested on: Candida albicans; assay: Antifungal activity against Candida albicans ATCC 10231 assessed as reduction in fungal growth incubated for 48 hrs by microplate reader analysis; assay type: functional
[3] = tested on: Candida albicans; assay: Antifungal activity against Candida albicans SC5314 assessed as reduction in fungal growth incubated for 48 hrs by microplate reader analysis; assay type: functional
[4] = tested on: Pichia kudriavzevii; assay: Antifungal activity against Candida krusei ATCC 6258 (Y-7179) assessed as reduction in fungal growth incubated for 48 hrs by microplate reader analysis; assay type: functional
[5] = tested on: Candida tropicalis; assay: Antifungal activity against Candida tropicalis ATCC750 (Y-12699) assessed as reduction in fungal growth incubated for 48 hrs by microplate reader analysis; assay type: functional
[6] = tested on: Cryptococcus neoformans; assay: Antifungal activity against Cryptococcus neoformans H99 assessed as reduction in fungal growth incubated for 48 hrs by microplate reader analysis; assay type: functional
[7] = tested on: Aspergillus fumigatus; assay: Antifungal activity against Aspergillus fumigatus MYA 3627 assessed as reduction in fungal growth incubated for 48 hrs by microplate reader analysis; assay type: functional
[8] = tested on: Aspergillus fumigatus; assay: Antifungal activity against Aspergillus fumigatus NRRL6113 assessed as reduction in fungal growth incubated for 48 hrs by microplate reader analysis; assay type: functional
[9] = tested on: Aspergillus fumigatus; assay: Antifungal activity against Aspergillus fumigatus NRRL5109 assessed as reduction in fungal growth incubated for 48 hrs by microplate reader analysis; assay type: functional
[10] = tested on: Aspergillus flavus; assay: Antifungal activity against Aspergillus flavus NRRL485 assessed as reduction in fungal growth incubated for 48 hrs by microplate reader analysis; assay type: functional
[11] = tested on: Aspergillus niger; assay: Antifungal activity against Aspergillus niger FGSC A732 assessed as reduction in fungal growth incubated for 48 hrs by microplate reader analysis; assay type: functional
[12] = tested on: Aspergillus terreus; assay: Antifungal activity against Aspergillus terreus 191A6 assessed as reduction in fungal growth incubated for 48 hrs by microplate reader analysis; assay type: functional
[13] = tested on: Curvularia lunata; assay: Antifungal activity against Curvularia lunata NRRL6409 assessed as reduction in fungal growth incubated for 48 hrs by microplate reader analysis; assay type: functional
[14] = tested on: Rhizopus arrhizus; assay: Antifungal activity against Rhizopus oryzae FGSC 9543 assessed as reduction in fungal growth incubated for 48 hrs by microplate reader analysis; assay type: functional
[15] = tested on: Mucor circinelloides; assay: Antifungal activity against Mucor circinelloides 235C7 assessed as reduction in fungal growth incubated for 48 hrs by microplate reader analysis; assay type: functional
[16] = tested on: Fusarium solani; assay: Antifungal activity against Fusarium solani 243G2 assessed as reduction in fungal growth incubated for 48 hrs by microplate reader analysis; assay type: functional
[17] = tested on: Paecilomyces lilacinus; assay: Antifungal activity against Paecilomyces lilacinus 165E10 assessed as reduction in fungal growth incubated for 48 hrs by microplate reader analysis; assay type: functional; conditions: Purpureocillium lilacinum
[18] = tested on: Hamigera insecticola; assay: Antifungal activity against Hamigera insecticola NRRL35442 assessed as reduction in fungal growth incubated for 48 hrs by microplate reader analysis; assay type: functional
[19] = tested on: Candida albicans; assay: Antifungal activity against Candida albicans SC5314 assessed as reduction in fungal viability incubated for 48 hrs by microplate reader analysis; assay type: functional
[20] = tested on: Candida albicans; assay: Antifungal activity against Candida albicans ATCC 10231 assessed as reduction in fungal viability incubated for 48 hrs by microplate reader analysis; assay type: functional
[21] = tested on: Candida parapsilosis; assay: Antifungal activity against Candida parapsilosis ATCC 22019 (Y-12969) assessed as reduction in fungal viability incubated for 48 hrs by microplate reader analysis; assay type: functional
[22] = tested on: Candida tropicalis; assay: Antifungal activity against Candida tropicalis ATCC750 (Y-12699) assessed as reduction in fungal viability incubated for 48 hrs by microplate reader analysis; assay type: functional
[23] = tested on: Pichia kudriavzevii; assay: Antifungal activity against Candida krusei ATCC 6258 (Y-7179) assessed as reduction in fungal viability incubated for 48 hrs by microplate reader analysis; assay type: functional
[24] = tested on: Cryptococcus neoformans; assay: Antifungal activity against Cryptococcus neoformans H99 assessed as reduction in fungal viability incubated for 48 hrs by microplate reader analysis; assay type: functional
[25] = tested on: Aspergillus fumigatus; assay: Antifungal activity against Aspergillus fumigatus MYA 3627 assessed as reduction in fungal viability incubated for 48 hrs by microplate reader analysis; assay type: functional
[26] = tested on: Aspergillus fumigatus; assay: Antifungal activity against Aspergillus fumigatus NRRL6113 assessed as reduction in fungal viability incubated for 48 hrs by microplate reader analysis; assay type: functional
[27] = tested on: Aspergillus fumigatus; assay: Antifungal activity against Aspergillus fumigatus NRRL5109 assessed as reduction in fungal viability incubated for 48 hrs by microplate reader analysis; assay type: functional
[28] = tested on: Aspergillus flavus; assay: Antifungal activity against Aspergillus flavus NRRL485 assessed as reduction in fungal viability incubated for 48 hrs by microplate reader analysis; assay type: functional
[29] = tested on: Aspergillus niger; assay: Antifungal activity against Aspergillus niger FGSC A732 assessed as reduction in fungal viability incubated for 48 hrs by microplate reader analysis; assay type: functional
[30] = tested on: Aspergillus terreus; assay: Antifungal activity against Aspergillus terreus 191A6 assessed as reduction in fungal viability incubated for 48 hrs by microplate reader analysis; assay type: functional
[31] = tested on: Curvularia lunata; assay: Antifungal activity against Curvularia lunata NRRL6409 assessed as reduction in fungal viability incubated for 48 hrs by microplate reader analysis; assay type: functional
[32] = tested on: Rhizopus arrhizus; assay: Antifungal activity against Rhizopus oryzae FGSC 9543 assessed as reduction in fungal viability incubated for 48 hrs by microplate reader analysis; assay type: functional
[33] = tested on: Mucor circinelloides; assay: Antifungal activity against Mucor circinelloides 235C7 assessed as reduction in fungal viability incubated for 48 hrs by microplate reader analysis; assay type: functional
[34] = tested on: Fusarium solani; assay: Antifungal activity against Fusarium solani 243G2 assessed as reduction in fungal viability incubated for 48 hrs by microplate reader analysis; assay type: functional
[35] = tested on: Paecilomyces lilacinus; assay: Antifungal activity against Paecilomyces lilacinus 165E10 assessed as reduction in fungal viability incubated for 48 hrs by microplate reader analysis; assay type: functional, Purpureocillium lilacinum
[36] = tested on: Hamigera insecticola; assay: Antifungal activity against Hamigera insecticola NRRL35442 assessed as reduction in fungal viability incubated for 48 hrs by microplate reader analysis; assay type: functional

CC[C@H](C)C[C@H](C)CCCCCCCCC(=O)N[C@H]1C[C@@H](O)[C@@H](NCCN)NC(=O)[C@@H]2[C@@H](O)CCN2C(=O)[C@H]([C@H](O)CCN)NC(=O)[C@H]([C@H](O)[C@@H](O)c2ccc(O)cc2)NC(=O)[C@@H]2C[C@@H](O)CN2C(=O)[C@H]([C@@H](C)O)NC1=O [CASPOFUNGIN]
MFC [1]: 1.3 µM (≈ 1.42 µg/mL) | MIC80 [1]: 0.3 µM (≈ 0.328 µg/mL) | MFC [2]: 5 µM (≈ 5.47 µg/mL) | MIC80 [2]: 0.03 µM (≈ 0.0328 µg/mL) | MFC [3]: 0.63 µM (≈ 0.689 µg/mL) | MIC80 [3]: 0.03 µM (≈ 0.0328 µg/mL) | MFC [4]: 0.3 µM (≈ 0.328 µg/mL) | MIC80 [4]: 0.2 µM (≈ 0.219 µg/mL) | MFC [5]: 0.2 µM (≈ 0.219 µg/mL) | MIC80 [5]: 0.03 µM (≈ 0.0328 µg/mL) | MFC [6]: > 10 µM | MIC80 [6]: > 10 µM | MFC [7]: > 10 µM | MIC80 [7]: 0.1 µM (≈ 0.109 µg/mL) | MFC [8]: > 10 µM | MIC80 [8]: > 10 µM | MFC [9]: > 10 µM | MIC80 [9]: > 10 µM | MFC [10]: > 10 µM | MIC80 [10]: > 10 µM | MFC [11]: > 10 µM | MIC80 [11]: 0.1 µM (≈ 0.109 µg/mL) | MFC [12]: > 10 µM | MIC80 [12]: 0.13 µM (≈ 0.142 µg/mL) | MFC [13]: 5 µM (≈ 5.47 µg/mL) | MIC80 [13]: 5 µM (≈ 5.47 µg/mL) | MFC [14]: > 10 µM | MIC80 [14]: > 10 µM | MFC [15]: > 10 µM | MIC80 [15]: > 10 µM | MFC [16]: > 10 µM | MIC80 [16]: 0.2 µM (≈ 0.219 µg/mL) | MFC [17]: > 10 µM | MIC80 [17]: > 10 µM | MFC [18]: > 10 µM | MIC80 [18]: 0.1 µM (≈ 0.109 µg/mL) | MFC<=99.9 [19]: 0.63 µM (≈ 0.689 µg/mL) | MFC<=99.9 [20]: 5 µM (≈ 5.47 µg/mL) | MFC<=99.9 [21]: 1.3 µM (≈ 1.42 µg/mL) | MFC<=99.9 [22]: 0.2 µM (≈ 0.219 µg/mL) | MFC<=99.9 [23]: 0.3 µM (≈ 0.328 µg/mL) | MFC<=99.9 [24]: >10 µM | MFC<=99.9 [25]: >10 µM | MFC<=99.9 [26]: >10 µM | MFC<=99.9 [27]: >10 µM | MFC<=99.9 [28]: >10 µM | MFC<=99.9 [29]: >10 µM | MFC<=99.9 [30]: >10 µM | MFC<=99.9 [31]: 5 µM (≈ 5.47 µg/mL) | MFC<=99.9 [32]: >10 µM | MFC<=99.9 [33]: >10 µM | MFC<=99.9 [34]: >10 µM | MFC<=99.9 [35]: >10 µM | MFC<=99.9 [36]: >10 µM
